Source: a melting point compilation (Tetko et al.; mined from patent text by program, amines drawn as free bases though some values may be those of a salt)

| Compound | melting point [°C] |
| --- | --- |
| Cc1ccc2c(C3CN4CCC3CC4)c(C)[nH]c2c1 (stereo unspecified) | 237 to 238 |
| CC(C)C[C@H](NC(=O)[C@H](Cc1ccccc1)NCC(S)C(N)Cc1ccccc1)C(=O)O (stereo partly specified) | 123 to 160 |
| CCNC(=O)Nc1nc2cc(-c3ccc(N(C)C)nc3)ccn2n1 | 285 to 290 |
| CCOC(=O)CNCc1c(N)ccc(N2CCCC2)c1Cl | 69 to 70 |
| CC(=O)Oc1cccnc1-n1ccnc1SCc1ccccc1N1CCOCC1 | 89 to 91 |
| COc1cc(C)cc2c(Br)ccc(OC(C)C)c12 | 78 |
| CCOc1cscc1C=O | 42 to 45 |
| C1=C(c2ccccc2)CCN(CC2CCC=C(c3ccccc3)C2)C1 (stereo unspecified) | 94 to 100 |
| CCCCCCCCNCC(O)COc1ccc(SC)cc1C (stereo unspecified) | 59 to 60 |
| CCCCCCCCC=CC(=O)c1c(C)[nH]n(-c2ccccc2)c1=O | 40 |
| COc1cc2c(=O)c(OS(C)(=O)=O)cn(C)c2cc1OC | 216 to 217 |
| Cc1nccn1C(=O)Nc1ccccc1 | 205 to 207 |
| Cc1ccc(C2SC3(CCN(CCCC(=O)c4ccc(F)cc4)CC3)c3ccccc32)cc1 (stereo unspecified) | 134 to 135 |
| CC1(C)CC(C)(C)CC(CCCc2ccccc2)(NC(=O)CCl)C1 | 83 to 85 |
| Nc1c(Br)cc(S(=O)(=O)Cl)cc1Br | 153 to 155 |
| COc1ccc(S(=O)(=O)Nc2cccnc2Nc2ccc(F)cc2)cc1 | 196 to 197 |
| CC(C)(C)OC(=O)N[C@H](C(=O)N1CCC[C@H]1C(=O)OCc1ccccc1)C(C)(C)C | 174 |
| COc1ccc(CC(=S)N2CCOCC2)cc1 | 145 to 147 |
| O=[N+]([O-])c1ccc(SCl)c(C(Cl)(Cl)Cl)c1 | 56 to 57 |
| O=[N+]([O-])c1cccc2nc3c(nc12)N1CCCCC1CO3 (stereo unspecified) | 182 to 184 |
| CCCNC(=O)N(Cc1ccccc1)NC(=O)OC(C)(C)C | 123 to 124 |
| CO/C=C(/C(=O)OC)c1ccccc1CCl | 85 to 88 |
| CCN1CCCC(CC)(c2ccc(Nc3ncc4ccc(-c5ccccc5OC)n4n3)cc2)C1 (stereo unspecified) | 69 to 78 |
| c1ccc2c(c1)OCC(c1ncc[nH]1)O2 (stereo unspecified) | 225 to 227 |

| Compound | melting point [°C] |
| --- | --- |
| CCOC(=O)C(Cc1ccc(C(N)=S)cc1)(NC(C)=O)C(=O)OCC | 168 to 172 |
| CCC(=O)Nc1n[nH]c(C(C)(C)C)c1Cl | 136 to 137 |
| O=[N+]([O-])c1c(Cl)cccc1NCCO | 78 |
| CC1(C)OC(=O)Nc2ccc(-c3ccc(C#N)o3)cc21 | 257 to 260 |
| COc1ccc(N2CCN(c3c(C)c(C)c4c(c3C3CC3)CC(C)(C)O4)CC2)cc1 | 121 to 122 |
| O=C(O)CCN1CCN2c3ccccc3Cc3ccccc3C2C1 (stereo unspecified) | 195 to 197 |
| CCOC(=O)CCCCCSc1nnc(S)s1 | 79 to 80 |
| CN1CCC(Nc2nc3ncnc(O)c3n2Cc2ccc(F)cc2)CC1 | 256 |
| Cn1ncc2c1CS(=O)(=O)c1cn[nH]c1-2 | > 270 |
| CC(C)(C)NNC(=O)c1ccc(Cl)cc1 | 116 to 122 |
| COc1cc(C=C(C)[N+](=O)[O-])c(OC)c(C)c1C | 76 to 81 |
| CCCCNCc1ccc2cc(O)ccc2c1 | 108 to 112 |
| S=c1n(N=Cc2ccccc2)ccn1N=Cc1ccccc1 | 215 to 218 |
| Cc1cc2c(cc1O)C(C1(CC3CCCC3)CC1)N(C)CC2 (stereo unspecified) | 136 to 138 |
| COc1cc(C)ccc1S(=O)(=O)O | 92 to 94 |
| NC(=O)N(O)Cc1ccsc1 | 129 to 131 |
| NC1(C2CCCC2=O)OCCO1 (stereo unspecified) | 134 to 136 |
| Cc1cccc2ncn(-c3nnn[nH]3)c(=O)c12 | 280 to 281 |
| COc1ccccc1NCN1C(=O)CN(C)C1=O | 93 to 96.5 |
| Cc1ccc(OCCCl)c(C(N)=O)c1 | 111 to 113 |
| CNC(=O)C(Cc1ccc(OC)cc1)NC(=O)C(CC(C)C)C(CC(=O)NCC(N)=O)SC(C)=O (stereo unspecified) | 218 to 219 |
| Nc1nc2ccccc2c2c1ncn2CCOCCCc1ncccn1 | 126 to 127 |
| O=C(C[C@@H](CCc1ccccc1)C(=O)O)OCC(Cl)(Cl)Cl | 59 to 61 |
| Cc1cc(CCCCCOc2c(Cl)cc(C3=NCCO3)cc2Cl)sn1 | 38 to 39.5 |

The remaining lines, values ahead:

| melting point [°C] | Compound |
| --- | --- |
| 69 to 71 | CC1(c2ccc3noc(-c4ccccc4)c3c2)OCCO1 |
| 185 to 195 | CCCCOCCOc1ccc(-c2ccc3c(c2)C=C(C(=O)O)CCN3c2ccc(S(N)(=O)=O)cc2)cc1 |
| 98 to 100 | Cc1ccnc(C(=O)c2ccc(F)cc2)c1 |
| 183 to 184 | Cc1nnc(-c2ccc3occ(-c4ccc(S(=O)Cc5ccccc5)cc4)c3c2)o1 (stereo unspecified) |
| 188 to 190 | O=C(C=NNc1cc(Oc2ncccn2)c(Cl)cc1F)C(F)(F)F |
| 72 to 75 | CC1(C)COC(c2ccccc2-c2ccc(CCl)cc2)=N1 |
| 121 to 124 | c1ccc(-c2nc(-c3ccc4c(c3)OCO4)sc2-c2ccccc2)cc1 |
| 119 to 122 | O=C(CCc1cc2ccccc2s1)N1C(=O)OC[C@@H]1Cc1ccccc1 |
| 76 to 80 | COC(=O)C(Br)c1ccc(OCCOc2ccc(Cl)cc2)cc1 (stereo unspecified) |
| 203 to 204 | CC(C)(O)c1cccc(-c2ccc3nc(-c4ccc5cc[nH]c5c4)cn3c2)c1 |
| 93 to 94 | CCOC(=O)c1cccc(-c2ccc(-c3ccc(C(F)(F)F)cc3)o2)c1 |
| 220 to 222 | CC(C)C1CCN(Cc2ccc(COc3cccc4c3C(=O)N(C3CCC(=O)NC3=O)C4=O)cc2)CC1 (stereo unspecified) |
| 174 to 175 | Nc1nc2[nH]c(CCCCc3ccc(C(=O)N[C@@H](CCC(=O)O)C(=O)O)o3)cc2c(=O)[nH]1 |
| 91 to 93 | COC(=O)c1ccc(Cl)cc1NC(=O)CSc1ccc(C)cc1 |
| 201 to 203 | CCc1c(C)c2ccc(O)cc2oc1=O |
| 90 to 91 | CCOC(=O)c1nccn1-c1nc(-c2ccc(Cl)cc2)c(CCCOc2ccccc2OC)o1 |
| 87 to 88 | CCOC(=O)C(C)(C)Oc1ccc(CCc2cc(-c3ccc(C(F)(F)F)cc3)oc2C)cc1 |
| 186 | COCC(Cl)c1nc2c(C(F)(F)F)cccc2c(O)c1C(=O)Nc1nccs1 (stereo unspecified) |
| 135 to 136 | CS(=O)c1c(Br)nn(-c2c(Cl)cc(C(F)(F)F)cc2Cl)c1N (stereo unspecified) |
| 195 to 200 | C=C(CN(C)C)C(O)c1ncc2c(c1O)COC2c1ccc(Cl)cc1 (stereo unspecified) |
| 154 to 155 | CCOC(=O)C1=C(C)NC(C)=C(C(=O)OCC)C1c1ccc(Br)cc1F |
| 270 to 272 | Cc1cc2c(-c3cccc(C(=O)O)c3)c(CC(=O)Nc3ccc(Cl)cc3C(F)(F)F)c(=O)oc2cc1Cl |
| 275 to 278 | CCc1cccc(C)c1CNc1cc(C(=O)O)cc2c1nc(COC)n2C |
| 201 to 205 | Cc1cnccc1N1CCN(CC(=O)c2ccc(NS(C)(=O)=O)cc2)CC1 |
| 286 | CCc1nc(NC(=O)c2cnn3c(C(F)F)cc(-c4ccc(C(F)(F)F)cc4)nc23)sc1S(=O)(=O)N1CCC(O)C1 (racemic) |
| 100 to 101 | C=CCOc1ccc(-c2cc(=O)c3c(O)cc(OCOC)cc3o2)cc1 |
| 107 to 108 | CCOC(=O)c1cc(-c2ccc(Cl)cc2)n(-c2ccc(OC)cc2)n1 |

| melting point [°C] | Compound |
| --- | --- |
| 155 to 156 | COc1ccc(-c2c(Cl)c(CN3C(=O)COC3=O)nc3sc4c(c23)CCC(C(N)=O)C4)cc1 (stereo unspecified) |
| 217 to 218 | O=C(NCCOc1ccc(CC(Oc2ccccc2)C(=O)O)cc1)c1ccc(-c2ccc(C(F)(F)F)cc2)cc1 (stereo unspecified) |
| 174 to 176 | Clc1ccccc1/C=C/C1=CCN(Cc2c[nH]c3ncccc23)CC1 |
| 135 to 136 | CC1(C)C(=O)Oc2ccc3ccc(Cn4ccnc4)cc3c21 |
| 268 to 271 | Cn1cc2c(c1-c1ccccc1)C(=O)c1ccccc1C2=O |
| 119 to 124 | CCOC(=O)c1ccc(NC(=O)C(COc2cccnc2)NS(=O)(=O)c2ccc(Cl)cc2)cc1 (racemic) |
| 165 to 167 | O=C(c1sc2ccc(C(F)(F)F)cc2c1O)N(C=Cc1ccccc1)C=Cc1ccccc1 |
| 159 to 160 | CCC(OCC1CC1)c1ccc(Cl)c2nc3n(c12)CCCN3c1ccc(Cl)cc1Cl (stereo unspecified) |
| 172 to 174 | CS(=O)(=O)c1ccc(-c2cnn(CC(F)(F)F)c(=O)c2NCCC#N)cc1 |
| 70 to 72 | O=C1NC(=O)C(c2ccc(OCCC3Oc4ccccc4N(Cc4cccc(Cl)c4)C3=O)cc2)S1 (stereo unspecified) |
| 97 to 99 | Nc1ccc(C(O)c2ccccn2)c(OCC(F)(F)F)c1 (stereo unspecified) |
| 226 to 228 | COC(=O)c1ccc(Cc2c(C)[nH]c(C)cc2=O)cc1 |
| 141 to 142 | CC(C)(C)COc1cccc(C[C@H]2NC(=O)O[C@H]2c2cccc(Cl)c2)c1 (racemic) |
| 105 to 106 | CC(C)c1nc(C(F)(F)F)ccc1C(=O)c1c(S(C)(=O)=O)noc1C1CC1 |
| 70 to 71 | CCO/C(=N/O)C1Cc2cc(C(=O)c3ccccc3F)c(O)c(C)c2O1 (stereo unspecified) |
| 247 to 249 | Cn1c(C(=O)O)c(-c2ccc(F)cc2)c2nccnc2c1=O |
| 150 to 151 | CC(C)(Oc1ccc(CCC(=O)c2ccc(-c3ccc(C(F)(F)F)cc3)s2)cc1F)C(=O)O |
| 86 to 87 | Cc1oc(-c2ccco2)nc1COc1ccc(Cn2cc(CCC(=O)O)c(-c3ccccc3)c2)cc1 |
| 168 | CCN(CC)C(=O)CCc1nc(-c2ccc([N+](=O)[O-])cc2)nc2ccccc12 |
| 183 to 184 | Cc1ccccc1N1CCN(CC(O)COc2cccc3c2CCCC3=O)CC1 (stereo unspecified) |
| 158 to 159 | COCn1ncc2cc(-c3nnc(SCc4ccc(OC)c(C(F)(F)F)c4)o3)ccc21 |
| 162 | OCC1OC(n2c(C(F)(F)F)nc3c(Cl)cc(Cl)cc32)C(O)C1O (stereo unspecified) |
| 87.6 | CC(C)(C)[Si](C)(C)O[C@@H](CCCC(=O)N1C(=O)OC[C@@H]1Cc1ccccc1)c1ccc(F)cc1 |
| 204 | CN1C(=O)N(c2cc(Cl)cc(Cl)c2)C(=O)[C@]12CN(Cc1ccccc1)C[C@H]2c1ccc(Br)cc1 (relative stereo) |
| 138 to 139 | COc1cccc(-c2ccc(C(=O)NCCOc3ccc(CC(Oc4ccc(C(C)C)cc4)C(=O)O)cc3)cc2)c1 (stereo unspecified) |
| 107 to 109 | CC(C)N(Cc1ccccc1)CC(O)COc1cccc2[nH]cc(C=O)c12 (stereo unspecified) |
